From patent US20230416221A1, “DIHYDROISOQUINOLINONE AND ISOINDOLINONE DERIVATIVES AND USES THEREOF” (HEFEI INSTITUTES OF PHYSICAL SCIENCE, CHINESE ACADEMY OF …, priority 2020, published 2023)
Read-outs that look alike come from different tables or passages of the source.

How the values were obtained:
[1] = tested on: acute myeloid leukemia cell line MV4-11; assay: Growth of cancer cells, Cell Titer-Glo GI50, MV4-11; settings: read-out: GI50 MV4-11
[2] = tested on: human colorectal cancer cell DLD1; assay: Growth of cancer cells, Cell Titer-Glo GI50, DLD1; assay type: cell-based
[3] = tested on: human chronic myeloid leukemia cell K562; assay: Growth of cancer cells, Cell Titer-Glo GI50, K562; assay type: cell-based; settings: incubated for 72 hours, Cell Titer-Glo, read-out: GI50 K562
[4] = tested on: MOLM13 drug resistant strain MOLM13 BR1; assay: Growth of drug resistant strain MOLM13 BR1, Cell Titer-Glo GI50; assay type: cell-based; settings: Homo sapiens, MOLM-13, BAY1251152-resistant MOLM13 strain, 72 hours
[5] = tested on: human colorectal cancer cell HCT116; assay: Growth of cancer cells, Cell Titer-Glo GI50, HCT116; assay type: cell-based
[6] = tested on: human liver cancer cell line HepG2; assay: Growth of cancer cells, Cell Titer-Glo GI50, HepG2; assay type: cell-based; settings: incubated for 72 hours
[7] = tested on: acute myeloid leukemia cell line MOLM13; assay: Growth of cancer cells, Cell Titer-Glo GI50, MOLM13; assay type: cell-based; settings: incubated for 72 hours, Cell Titer-Glo
[8] = tested on: acute myeloid leukemia cell line OCI-AML-3; assay: Growth of cancer cells, Cell Titer-Glo GI50, OCI-AML-3; assay type: cell-based; settings: Homo sapiens; incubated for 72 hours, Cell Titer-Glo; read-out: GI50 AML3
[9] = tested on: histiocytic lymphoma U-937; assay: Growth of cancer cells, Cell Titer-Glo GI50, U937; assay type: cell-based; settings: Homo sapiens, U-937; incubated for 72 hours, Cell Titer-Glo; read-out: GI50 U937
[10] = tested on: HepG2 drug resistant strain HepG2 CDK9 KI C20-1; assay: Growth of drug resistant strain HepG2 KI C20-1, Cell Titer-Glo GI50; assay type: cell-based, human; settings: for GI50 HepG2 CDK9 KI C20-1: CDK9 resistant mutation knockin HepG2 monoclone, 72 hours, Cell Titer-Glo
[11] = tested on: human ovarian granulosa tumor cell COV434; assay: Growth of cancer cells, Cell Titer-Glo GI50, COV434; assay type: cell-based; settings: read-out: GI50 COV434
CDK9 = CDK9 (Homo sapiens (Human), UniProt P50750); assay: Binding activity of compound and CDK9, split luciferase system (C37-CL / CDK9-NL) in HEK-293T cells; assay type: cell-based
Description: The plasmid of split luciferase system was constructed by molecular cloning technology. The N-terminal domain (NLuc) and C-terminal domain (CLuc) of luciferase were respectively cloned and inserted into the vector PCDNA3 to construct NLuc-PCDNA3 and CLuc-PCDNA3 vectors, and the polyclonal sites were reserved at both ends of the sequence. Then CDC37 and CDK9 were cloned into the corresponding vectors to construct C37-CL and CDK9-NL vectors. C37-CL plasmid sequence is shown in SEQ ID NO. 1. CDK9-NL plasmid sequence is shown in SEQ ID NO. 2.
The mixed transfection complex was added to the 10 cm cell culture dish and cultured at 37° C. and 5% CO2 for 24 hours. […] After counting, the transfected cells were placed in a 96-well white Corning cell culture plate (purchased from Corning, U.S.) with 100 μL, 5000 cells/well. After 12 hours, the medium was removed from the 96-well plate and 100 μL culture medium containing corresponding concentration of the testing compound was added, which was cultured continuously for 12 hours. After 12 hours, 20 μL Luciferase-Glo (purchased from Promega, U.S.) testing reagent was added to each well. After mixing, the […] value was detected using a microplate reader.

[12] = tested on: acute myeloid leukemia cell line MOLM14; assay: Growth of cancer cells, Cell Titer-Glo GI50, MOLM14; assay type: cell-based; settings: incubated for 72 hours, Cell Titer-Glo, read-out: GI50 MOLM 14
[13] = tested on: gastrointestinal stromal tumor GIST-T1; assay: cells; settings: Homo sapiens, GISTT1, 72 h, read-out: GI50 GIST-T1
[14] = tested on: cervical cancer cell HeLa; assay: cells; settings: Homo sapiens, 72 h, read-out: GI50 HeLa
lymphoma cell WSU-DLCL2 [15] = assay: cells; settings: Homo sapiens, WSUDLCL2, 72 h, read-out: GI50 WSU-DLCL2
lymphoma cell WSU-DLCL2 [16] = settings: read-out: GI50 WSU-DLCL2; incubated for 72 hours, Cell Titer-Glo
[17] = tested on: gastrointestinal stromal tumor GIST-T1; settings: read-out: GI50 GIST-T1; incubated for 72 hours, Cell Titer-Glo
CDK9/CyclinT1 protein = CDK9/CyclinT1 protein (Homo sapiens (Human), UniProt P50750); assay: Enzyme activity assay of CDK9 protein inhibition in vitro, CDK9/CyclinT1
[18] = tested on: cervical cancer cell HeLa; settings: read-out: GI50 HeLa; incubated for 72 hours, Cell Titer-Glo
[19] = molecular target: CDK9-L156F mut/CyclinT1 mutant protein (Homo sapiens (Human), UniProt P50750, L156F); assay: Enzyme activity assay of CDK9 mutant protein inhibition in vitro, CDK9-L156F mut/CyclinT1
[20] = Homo sapiens, DLD-1, incubated for 72 hours
[21] = Homo sapiens, HCT-116, incubated for 72 hours
[22] = Homo sapiens, MOLM-13, Table 2, read-out: GI50 MOLM13
[23] = Homo sapiens, MOLM-13, Table 1, read-out: GI50 MOLM 13
[24] = incubated for 72 hours, Cell Titer-Glo

CDK9/CyclinT1 protein, sequence (P50750 whole entry): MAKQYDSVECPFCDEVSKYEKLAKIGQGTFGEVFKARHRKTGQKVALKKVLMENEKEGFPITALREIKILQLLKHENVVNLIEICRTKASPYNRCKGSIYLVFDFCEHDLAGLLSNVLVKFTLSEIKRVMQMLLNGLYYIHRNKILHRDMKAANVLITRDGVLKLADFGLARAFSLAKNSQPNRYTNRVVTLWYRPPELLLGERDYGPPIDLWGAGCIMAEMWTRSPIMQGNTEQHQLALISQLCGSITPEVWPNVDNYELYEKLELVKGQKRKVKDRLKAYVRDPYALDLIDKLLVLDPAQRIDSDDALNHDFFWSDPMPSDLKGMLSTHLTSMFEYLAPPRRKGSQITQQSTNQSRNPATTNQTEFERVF
CDK9/CyclinT1 protein, sequence (O60563 whole entry partner): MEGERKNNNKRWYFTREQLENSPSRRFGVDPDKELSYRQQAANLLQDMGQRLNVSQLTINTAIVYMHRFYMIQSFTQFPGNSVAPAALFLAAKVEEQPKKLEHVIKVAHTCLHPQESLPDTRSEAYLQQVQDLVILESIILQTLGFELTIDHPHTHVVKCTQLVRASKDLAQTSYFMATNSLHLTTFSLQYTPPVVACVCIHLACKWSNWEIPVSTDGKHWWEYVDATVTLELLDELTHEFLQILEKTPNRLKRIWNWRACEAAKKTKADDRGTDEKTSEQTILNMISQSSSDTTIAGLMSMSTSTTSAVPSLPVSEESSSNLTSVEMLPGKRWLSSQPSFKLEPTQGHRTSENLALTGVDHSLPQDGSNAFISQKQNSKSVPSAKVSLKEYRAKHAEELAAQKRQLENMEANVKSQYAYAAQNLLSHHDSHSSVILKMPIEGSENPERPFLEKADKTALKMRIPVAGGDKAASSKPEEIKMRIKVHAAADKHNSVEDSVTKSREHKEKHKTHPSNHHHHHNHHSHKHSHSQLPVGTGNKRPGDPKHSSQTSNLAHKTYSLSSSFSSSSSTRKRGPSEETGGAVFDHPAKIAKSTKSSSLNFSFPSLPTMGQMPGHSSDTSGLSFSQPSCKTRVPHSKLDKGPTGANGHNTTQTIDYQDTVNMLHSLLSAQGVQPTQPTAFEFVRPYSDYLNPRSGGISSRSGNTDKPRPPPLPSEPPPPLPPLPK
CDK9, sequence (P50750 whole entry, the tested form may be a part): as the sequence (P50750 whole entry) above
CDK9-L156F mut/CyclinT1 mutant protein, sequence (P50750 whole entry L156F): as the sequence (P50750 whole entry) above, with L156F counted along it
CDK9-L156F mut/CyclinT1 mutant protein, sequence (O60563 whole entry partner): as the sequence (O60563 whole entry partner) above

| SMILES | GI50 ([1]; Homo sapiens, MV4-11, 72 h) [nM] | GI50 ([3]; Homo sapiens, K562) [nM] | GI50 [4] [nM] | GI50 [7, 22] [nM] | GI50 HepG2 CDK9 KI C20-1 [10] [nM] | GI50 ([6]; Table 3) [nM] | GI50 [7, 23] [nM] | GI50 ([12]; Homo sapiens, MOLM-14) [nM] | further results |
| --- | --- | --- | --- | --- | --- | --- | --- | --- | --- |
| COCCNC1CCC(Nc2nccc(-c3ccc4c(c3)C(C(C)C)(C(C)C)CNC4=O)n2)CC1 (stereo not drawn) [Compound 14, 4,4-diisopropyl-6-(2-(((1r,4r)-4-((2-methoxyethyl)amino)cyclohexyl)amino)pyrimidin-4-yl)-3,4-dihydroisoquinolin-1(2H)-one] | 17 | 26 | 8.26 | 7.08 |  |  |  |  | GI50 [2, 20]: 63 nM; GI50 [5, 21]: 12 nM; GI50 ([6]; Table 1): 23 nM |
| CC1(C)CNC(=O)c2ccc(-c3ccnc(Nc4cccc(N5CCCNCC5)c4)n3)cc21 [Compound 35, 6-(2-((3-(1,4-homopiperazin-1-yl)phenyl)amino)pyrimidin-4-yl)-4,4-dimethyl-3,4-dihydroisoquinolin-1(2H)-one] | < 1 | 25 | 1.69 |  | 138.5 | 87.4 | < 1 |  | GI50 [8]: 33 nM; GI50 [9]: 23 nM; GI50 ([11]; Homo sapiens, COV434, 72 h): < 1 nM; IC50 (CDK9): 300 nM |
| CCc1cnn2c(NCc3ccc[n+]([O-])c3)cc(N3CCCC[C@H]3CCO)nc12 [Dinaciclib, reference compound] | 22 | 53 |  |  |  |  | 11 | 18 | GI50 [8]: 4 nM; GI50 [2, 20]: 30 nM; GI50 [9]: 5 nM; GI50 [13]: 15 nM; GI50 [14]: 16.5 nM; GI50 (lymphoma cell WSU-DLCL2 [15]): 13 nM; GI50 ([11]; Homo sapiens, COV434, 72 h): 8 nM; GI50 [5, 21]: 15 nM |
| COC[C@@H](C)NC1CCC(Nc2cc(-c3csc(NCC4(C#N)CCOCC4)n3)c(Cl)cn2)CC1 (stereo partly drawn) [JSH-009, reference compound] |  |  |  |  |  |  |  |  | GI50 [1, 24]: 6 nM; GI50 ([2]; incubated for 72 hours): 106 nM; GI50 [3]: 9 nM; GI50 [12]: 4 nM; GI50 (lymphoma cell WSU-DLCL2 [16]): 16 nM; GI50 [11, 24]: 30 nM; GI50 ([5]; incubated for 72 hours): 23 nM; GI50 ([7]; Table 1, read-out: GI50 MOLM 13): 4 nM; GI50 [17]: 34 nM; IC50 (CDK9/CyclinT1 protein; read-out: CDK9/CyclinT1 Protein activity (IC50)): 29 nM; GI50 [18]: 18 nM |
| COCCN[C@H]1CC[C@H](Nc2nccc(-c3ccc4c(c3)C(C(C)C)(C(C)C)CNC4=O)n2)CC1 [Compound 14, 4,4-diisopropyl-6-(2-(((1r,4r)-4-((2-methoxyethyl)amino)cyclohexyl)amino)pyrimidin-4-yl)-3,4-dihydroisoquinolin-1(2H)-one] |  |  |  |  |  |  |  |  | IC50 [19]: 98.6 nM |
| Cc1ccc(Nc2nccc(-c3ccc4c(c3)C(C)(C)CNC4=O)n2)cc1N1CCN(C)CC1 [Compound 82, 4,4-methyl-6-(2-((4-methyl-3-(4-methylpiperazin-1-yl)phenyl)amino)pyrimidin-4-yl)-dihydroisoquinolin-1(2H)-one] |  | 26 | 1.71 | 0.845 |  |  | < 1 | 0.8 | IC50 [19]: 105 nM; IC50 (CDK9/CyclinT1 protein): 2.6 nM |
| CN1CCN(c2cccc(Nc3nccc(-c4ccc5c(c4)C(C)(C)CNC5=O)n3)c2)CC1 [Compound 37, 4,4-dimethyl-6-(2-((3-(4-methylpiperazin-1-yl)phenyl)amino)pyrimidin-4-yl)-3,4-dihydroisoquinolin-1(2H)-one] | < 1 | 31 | 3.05 |  | 74.8 | 27.8 | < 1 | < 1 | IC50 (CDK9): 49 nM |
| COc1cc(F)ccc1-c1cc(Nc2cc(CS(C)(=N)=O)ccn2)ncc1F (stereo not drawn) [BAY1251152, reference compound] | 27 |  | 1190 | 38 | >1000 | 36.1 |  | 40 | drug resistance on the drug resistant strain of liver cancer cell HepG2 ([10]; result in words): obvious drug resistance |
